In ChEMBL document CHEMBL1128211, “3D-quantitative structure-activity relationships of human immunodeficiency virus type-1 proteinase inhibitors: comparative molecular field analysis of 2-heterosubstituted statine derivatives-implications for the design of novel inhibitors” (J Med Chem, 1995):

Biological target: Human immunodeficiency virus type 1 protease (Human immunodeficiency virus 1, UniProt Q72874)
Assay: Inhibitory activity was determined against HIV type 1 protease

Structure (SMILES)	Ki [nM]
CC(C)C[C@H](NC(=O)[C@H](NCc1ccccc1)[C@H](O)[C@H](Cc1ccccc1)NC(=O)[C@@H](NC(=O)OCc1ccccc1)C(C)C)C(=O)NCc1ccccc1	11
CC(C)(C)[C@H](NC(=O)OCc1ccccc1)C(=O)N[C@@H](Cc1ccccc1)[C@@H](O)[C@@H](NCc1ccccc1)C(=O)NC(CO)c1ccccc1 (stereo partly drawn)	107
COc1ccc(CN[C@@H](C(=O)N[C@H](C(=O)NCCn2ccnc2)C(C)C)[C@H](O)[C@H](Cc2ccccc2)NC(=O)[C@@H](NC(=O)OCc2ccccc2)C(C)C)cc1	28.8
CC(C)[C@H](NC(=O)OCc1ccccn1)C(=O)N[C@@H](Cc1ccccc1)[C@@H](O)[C@@H](NCc1ccccc1)C(=O)N[C@H](C(=O)NCc1ccccn1)C(C)C	26.9
COc1ccc(CN[C@@H](C(=O)N[C@H](C(=O)NCc2ccccc2)C(C)C)[C@H](O)[C@H](Cc2ccccc2)NC(=O)[C@@H](NC(=O)N(C)Cc2nc3ccccc3[nH]2)C(C)C)cc1	10.2
CC(C)[C@H](NC(=O)OCc1ccccc1)C(=O)N[C@@H](Cc1ccccc1)[C@@H](O)[C@@H](NCCc1cc2ccccc2[nH]1)C(=O)N[C@H](C(=O)NCc1ccccc1)C(C)C	61.7
COC(=O)[C@@H](NC(=O)[C@H](NCc1ccccc1)[C@H](O)[C@H](Cc1ccccc1)NC(=O)[C@@H](NC(=O)OCc1ccccc1)C(C)C)C(C)C	1100
COc1ccc(CN[C@@H](C(=O)NCc2ccc(OC)cc2O)[C@H](O)[C@H](Cc2ccccc2)NC(=O)[C@@H](NC(=O)OCc2ccccc2)C(C)C)cc1	3020
CC(C)(C)[C@H](NC(=O)OCc1ccccc1)C(=O)N[C@@H](Cc1ccccc1)[C@@H](O)[C@@H](NCc1ccc(OCCO)cc1)C(=O)N[C@H]1c2ccccc2CC1O (stereo partly drawn)	15.8
COc1ccc(C[C@H](NC(=O)OC(C)(C)C)[C@@H](O)[C@@H](NCc2ccc(Cl)cc2)C(=O)N[C@H](C(=O)NCc2nc3ccccc3[nH]2)C(C)C)cc1	8.91
CC(C)[C@H](NC(=O)[C@H](NCc1ccccc1)[C@H](O)[C@H](Cc1ccccc1)NC(=O)[C@@H](NC(=O)CC1NC(=O)NC1=O)C(C)(C)C)C(=O)NCc1ccccc1 (stereo partly drawn)	11
CC(C)(C)OC(=O)N[C@@H](Cc1ccccc1)[C@@H](O)[C@@H](NCc1ccc(CNC(=O)CCc2nc3ccccc3[nH]2)cc1)C(=O)N[C@H]1c2ccccc2CC1O (stereo partly drawn)	40.7
COc1ccc(CN[C@@H](C(=O)N[C@H](C(=O)NCCc2ccc(O)cc2)C(C)C)[C@H](O)[C@H](Cc2ccccc2)NC(=O)[C@@H](NC(=O)OCc2ccccc2)C(C)C)cc1	18.2
COc1ccc(CN[C@@H](C(=O)N[C@H](C(=O)NCC2CCCCC2O)C(C)C)[C@H](O)[C@H](Cc2ccccc2)NC(=O)[C@@H](NC(=O)OCc2ccccc2)C(C)C)cc1 (stereo partly drawn)	15.8
CCOc1ccc(CN[C@@H](C(=O)NCc2ccccc2)[C@H](O)[C@H](Cc2ccccc2)NC(=O)[C@@H](NC(=O)OCc2ccccc2)C(C)(C)C)cc1	37.2
CC(C)(C)[C@H](NC(=O)OCc1ccccc1)C(=O)N[C@@H](Cc1ccccc1)[C@@H](O)[C@@H](NCc1ccc(OCCO)cc1)C(=O)NCc1ccccc1	33.9
COc1cccc(CN[C@@H](C(=O)N[C@H](C(=O)NCc2nc3ccccc3[nH]2)C(C)C)[C@H](O)[C@H](Cc2ccccc2)NC(=O)[C@@H](NC(=O)OCc2ccccc2)C(C)C)c1	9.77
COc1ccc(CN[C@@H](C(=O)N[C@H](C(=O)NCc2nc3ccccc3[nH]2)C(C)C)[C@H](O)[C@H](Cc2ccccc2)NC(=O)[C@@H](NC(=O)OC(C)(C)C)C(C)C)cc1	20.9
COc1ccc(CN[C@@H](C(=O)N[C@H](C(=O)NCc2ccc(OC)cc2O)C(C)C)[C@H](O)[C@H](Cc2ccccc2)NC(=O)[C@@H](NC(=O)OCc2ccccc2)C(C)C)cc1	14.1
COc1ccc(CN[C@@H](C(=O)N[C@H](C(=O)NCc2nc3ccccc3[nH]2)C(C)C)[C@H](O)[C@H](Cc2ccccc2)NC(=O)[C@@H](NC(=O)OCc2nc3cc[nH]cc-3n2)C(C)(C)C)cc1	19.1
CC(C)[C@H](NC(=O)c1ccc2ccccc2n1)C(=O)N[C@@H](Cc1ccccc1)[C@@H](O)[C@@H](NCc1ccccc1)C(=O)N[C@H](C(=O)NCc1ccccn1)C(C)C	42.7
CC(C)[C@H](NC(=O)OCc1ccccc1)C(=O)N[C@@H](Cc1ccccc1)[C@@H](O)[C@@H](NC[C@H](O)c1ccccc1)C(=O)N[C@H](C(=O)NCc1nc2ccccc2[nH]1)C(C)C	28.2
CC(C)[C@H](NC(=O)OCc1ccccc1)C(=O)N[C@@H](Cc1ccccc1)[C@@H](O)[C@@H](NCc1ccc(Cl)cc1)C(=O)N[C@H](C(=O)NCc1ccccn1)C(C)C	6.46
CC(C)[C@H](NC(=O)[C@H](NCc1ccccc1)[C@H](O)[C@H](Cc1ccccc1)NC(=O)[C@@H](NC(=O)OCc1ccccn1)C(C)(C)C)C(=O)NCc1ccccc1	1.24
CC(C)[C@H](NC(=O)[C@H](SCc1ccccc1)[C@H](O)[C@H](Cc1ccccc1)NC(=O)OC(C)(C)C)C(=O)NCc1ccccc1	26.9
COc1ccc(CN[C@@H](C(=O)NC2c3ccccc3C[C@H]2O)[C@H](O)[C@H](Cc2ccccc2)NC(=O)[C@@H](NC(=O)C(O)Cc2ccccc2)C(C)(C)C)cc1 (stereo partly drawn)	14.1
COc1ccc(CN[C@@H](C(=O)NCCNCc2nc3ccccc3[nH]2)[C@H](O)[C@H](Cc2ccccc2)NC(=O)[C@@H](NC(=O)OCc2ccccc2)C(C)C)cc1	1290

Structure (SMILES)	Ki [nM]
CC(C)[C@H](NC(=O)OCc1ccccc1)C(=O)N[C@@H](Cc1ccccc1)[C@@H](O)[C@@H](NCc1ccc(Br)cc1)C(=O)N[C@H](C(=O)NCc1nc2ccccc2[nH]1)C(C)C	15.1
CC(C)[C@H](NC(=O)[C@H](NCc1ccccc1)[C@H](O)[C@H](Cc1ccccc1)NC(=O)[C@@H](NC(=O)N(C)c1ccccc1)C(C)(C)C)C(=O)NCc1ccccc1	646
COc1ccc(CN[C@@H](C(=O)N[C@H](C(=O)NCCn2cnc3ccccc32)C(C)C)[C@H](O)[C@H](Cc2ccccc2)NC(=O)[C@@H](NC(=O)OCc2ccccc2)C(C)C)cc1	19.1
CCOc1ccc(CN[C@@H](C(=O)N[C@H]2c3ccccc3CC2O)[C@H](O)[C@H](Cc2ccccc2)NC(=O)[C@@H](NC(=O)OCc2ccccc2)C(C)(C)C)cc1 (stereo partly drawn)	10
CCOC(=O)[C@H](NCc1ccc(Cl)cc1)[C@H](O)[C@H](Cc1ccc(OC)cc1)NC(=O)OC(C)(C)C	3720
COc1ccc(CN[C@@H](C(=O)N[C@H](C(=O)NCc2nc3ccccc3[nH]2)C(C)C)[C@H](O)[C@H](Cc2ccccc2)NC(=O)[C@@H](NC(=O)OCc2ccccc2)C(C)C)cc1OC	12.6
COc1ccc(CN[C@@H](C(=O)N[C@H](C(=O)NCc2nc3ccccc3[nH]2)C(C)C)[C@H](O)[C@H](Cc2ccccc2)NC(=O)[C@@H](NC(=O)[C@@H](O)Cc2ccccc2)C(C)(C)C)cc1	6.03
COc1ccc(CN[C@@H](C(=O)NCC(O)c2ccccc2)[C@H](O)[C@H](Cc2ccccc2)NC(=O)[C@@H](NC(=O)OCc2ccccc2)C(C)C)cc1 (stereo partly drawn)	2510
CC(C)(C)[C@H](NC(=O)OCc1ccccc1)C(=O)N[C@@H](Cc1ccccc1)[C@@H](O)[C@@H](NCc1ccccc1)C(=O)N[C@@H](CO)c1ccccc1	36.3
COc1ccc(CN[C@@H](C(=O)N[C@H](C(=O)N(C)Cc2nc3ccccc3[nH]2)C(C)C)[C@H](O)[C@H](Cc2ccccc2)NC(=O)OC(C)(C)C)cc1	12
COc1ccc(CN[C@@H](C(=O)N[C@H](C(=O)NCc2nc3ccccc3[nH]2)C(C)C)[C@H](O)[C@H](Cc2ccccc2)NC(=O)[C@@H](N)C(C)(C)C)cc1	7.76
CC(C)(C)[C@H](NC(=O)OCc1ccccc1)C(=O)N[C@@H](Cc1ccccc1)[C@@H](O)[C@@H](NCc1ccc(OCCN2CCOCC2)cc1)C(=O)N[C@H]1c2ccccc2CC1O (stereo partly drawn)	9.55
CC(C)[C@H](NC(=O)[C@H](NCc1ccc(Br)cc1)[C@H](O)[C@H](Cc1ccccc1)NC(=O)[C@@H](NC(=O)c1ccc2ccccc2n1)C(C)(C)C)C(=O)NCc1nc2ccccc2[nH]1	5.62
CC(C)[C@H](NC(=O)[C@H](NCc1ccccc1)[C@H](O)[C@H](Cc1ccccc1)NC(=O)[C@@H](NC(=O)OC(C)(C)C)C(C)(C)C)C(=O)NCc1ccccc1	417
COc1ccc(CN[C@@H](C(=O)N[C@H](C(=O)NCCN2CCOCC2)C(C)C)[C@H](O)[C@H](Cc2ccccc2)NC(=O)[C@@H](NC(=O)OCc2ccccc2)C(C)C)cc1	24
CC(C)(C)[C@H](NC(=O)OCc1ccccc1)C(=O)N[C@@H](Cc1ccccc1)[C@@H](O)[C@@H](NCc1ccc(OCCN2CCOCC2)cc1)C(=O)NCc1ccccc1	69.2
CC(C)(C)OC(=O)N[C@@H](Cc1ccccc1)[C@@H](O)[C@@H](NCc1ccc(OCCN2CCOCC2)cc1)C(=O)N[C@H]1c2ccccc2CC1O (stereo partly drawn)	162
COc1ccc(CN[C@@H](C(=O)N[C@H](C(=O)NCc2nc3ccccc3[nH]2)C(C)C)[C@H](O)[C@H](Cc2ccccc2)NC(=O)[C@H](NC(=O)OCc2nc3cc[nH]cc-3n2)C(C)(C)C)cc1	447
CC(C)(C)[C@H](NC(=O)OCc1ccccc1)C(=O)N[C@@H](Cc1ccccc1)[C@@H](O)[C@@H](NCc1ccc(CNC(=O)Nc2ccccc2)cc1)C(=O)N[C@H]1c2ccccc2CC1O (stereo partly drawn)	3.31
CC(C)(C)[C@H](NC(=O)OCc1ccccc1)C(=O)N[C@@H](Cc1ccccc1)[C@@H](O)[C@@H](NCc1ccc(CNC(=O)OCc2ccccc2)cc1)C(=O)N[C@H]1c2ccccc2CC1O (stereo partly drawn)	10
CC(C)(C)[C@H](NC(=O)OCc1ccccc1)C(=O)N[C@@H](Cc1ccccc1)[C@@H](O)[C@@H](NCc1ccc(CNC(=O)CCc2nc3ccccc3[nH]2)cc1)C(=O)N[C@H]1c2ccccc2CC1O (stereo partly drawn)	4.07
COc1ccc(CN[C@@H](C(=O)N[C@H](C(=O)Nc2ccc3c(c2)OCCO3)C(C)C)[C@H](O)[C@H](Cc2ccccc2)NC(=O)[C@@H](NC(=O)OCc2ccccc2)C(C)C)cc1	15.1
CC(C)(C)OC(=O)N[C@@H](Cc1ccccc1)[C@@H](O)[C@@H](NCc1ccc(CNC(=O)OCc2ccccc2)cc1)C(=O)N[C@H]1c2ccccc2CC1O (stereo partly drawn)	19.1
CC(C)[C@H](NC(=O)[C@H](NCc1ccccc1)[C@H](O)[C@H](Cc1ccccc1)NC(=O)[C@H](O)C(C)C)C(=O)NCc1ccccc1	794
CC(C)(C)OC(=O)N[C@@H](Cc1ccccc1)[C@@H](O)[C@@H](NCc1ccc(OCCO)cc1)C(=O)NCc1ccccc1	1200
CC(C)(C)OC(=O)N[C@@H](Cc1ccccc1)[C@@H](O)[C@@H](NCc1ccccc1)C(=O)NCc1ccccc1	2510
